According to patent US12433903B2 (priority 2021, dated 2025):

Tested on: indomethacin induced intestinal injury
Test: Indomethacin-induced Crohn's disease in rats
Type: in vivo
Experimental: The objective of this study was to determine the efficacy of Compound 1 and Compound 2 in a model of Crohn's disease (indomethacin induced intestinal injury) in rats.
The study design was identical for Compound 1 and Compound 2. On study day -3, rats were weighed and distributed into treatment groups based on body weight.
On study day 0, treatment was initiated and continue as indicated in the Study Design Tables below. Groups 2-6 received a subcutaneous injection of indomethacin (9 mg/kg, 1 ml/kg) in 5% sodium bicarbonate (Sterile Water). On study day 1, Groups 2-6 received a second subcutaneous injection of indomethacin (8 mg/kg, 1 ml/kg) in 5% sodium bicarbonate (Sterile Water). Live phase sample & data collection specifics are outlined below. On study day 4, animals will be euthanized, a section of the small intestine will be removed and weighed. Further necropsy sample and data collection is specified below. Overall efficacy of test articles will be based on body weight, small intestine weight (10 cm), small intestine gross score, and histopathology
At necropsy, the small intestines were evaluated visually and given a gross score according to the following criteria: 0=Normal. 0.5=Very Minimal thickening, multifocal in area at risk. 1=Minimal thickening, fairly diffuse in area at risk. 2=Mild to moderate small intestinal/mesenteric thickening throughout area at risk. 3=Moderate thickening with 1 or more definite adhesions that would be easy to separate. 4=Marked thickening with numerous hard to separate adhesions. 5=Severe intestinal lesion resulting in death.
Preserved 9-cm sections of small intestine were trimmed into 6 transverse sections collected at approximately equal intervals along the […] of the intestine, without bias toward lesion presence or absence. These trimmed sections were processed through graded alcohols and a clearing agent, infiltrated and embedded in paraffin, sectioned, and stained with hematoxylin and eosin (H&E).
Small intestine sections from all animals were examined microscopically by a board-certified veterinary pathologist, and observations were entered into a computer-assisted data retrieval system. Cross sections of small intestine were scored for inflammation and necrosis using the following criteria:
The area at risk for development of this lesion is generally approximately 30% of the total area of a cross section of small intestine where the mesentery attaches.
Inflammation is localized to the mesentery and intestinal area at risk for necrosis with slight extension on either side of it. […] In this case, inflammation is scored based on overall severity ranging from 0.5 (very minimal) to 5 (severe) without regard for the extent of necrosis. The mean score for necrosis and inflammation was calculated for each animal and these mean scores were then summed to arrive at a total score. Each section also has a measurement of total width of mucosal necrosis.

[1] = Group 5 (Compound 1: 200 mg/kg PO)
[2] = Groups 4 and 5 (Compound 1: 50 and 200 mg/kg PO)

Question: What does the source list for `CCCCCc1cc(O)c(C/C=C(\C)CCC=C(C)C)c(OC)c1` [Compound 1, (E)-2-(3,7-dimethylocta-2,6-dien-1-yl)-3-methoxy-5-pentylphenol]?
Answer: small intestine gross score compared to vehicle (Group 4 (Compound 1: 50 mg/kg PO)): trend in lower small intestine gross score; histopathology scores vs vehicle and dexamethasone [1]: significantly lower; necrosis width vs vehicle and dexamethasone [1]: significantly lower; Histopathology scores vs vehicle (Group 2) and positive control (Group 3) [2]: trended lower; necrosis width vs vehicle (Group 2) and positive control (Group 3) [2]: trended lower; small intestine gross score compared to vehicle (Groups 5-6 (Compound 1: 200 and 800 mg/kg PO)): significant reductions in gross score; small intestine weight compared to vehicle (all three treatment groups (Groups 4-6), PO days 0-3): significantly lower; body weight change from Study Day -3 (preventing weight loss) (all treatment groups (Groups 4-6), PO days 0-3, in comparison to dexamethasone (Compound 2: and vehicle)): all trended towards or had significant differences in preventing weight loss
